Results: patent US5726177A, “Indole-derived arylpiperazines as ligands for 5HT1 -like, 5HT1B and 5HT1D receptors” (Pierre Fabre Medicament, priority 1993, dated 1998)
Structures can show the parent of a compound that is named as a salt. Where two headings read alike, the source gives them in different places.

Key:
5-HT1D receptors = test: Affinity for 5-HT1D receptors (3H-5HT binding, sheep caudate membranes); conditions: for Ratio 1A/1D (ratio of the IC50 values for the 5HT1A and 5HT1D receptors): selectivity 5-HT1D over 5-HT1A; for IC50: sheep caudate nuclei membranes, 3H-5HT, 25° C., 30 min
Experimental: STUDY OF THE AFFINITY FOR 5-HT1D RECEPTORS
This study is carried out according to the technique described by Pauwells et al. (Biochem. Pharmacol, 46, 535-538, 1993).
Preparation of the membranes
Sheep brains are removed in the local abattoir and transported in ice. The caudate nuclei are removed, weighed and homogenized with a Polytron for 20 sec (speed 6-7) in 20 volumes of Tris-HCl 50 mM, pH 7.7. The homogenate is centrifuged for 10 min at 48,000 g with an L5 50E centrifuge (Beckman).
The pellet, taken up in 20 volumes of Tris-HCl 50 mm, pH 7.7, is placed in a water bath at 37° C. for 10 min and then recentrifuged for 10 min at 48,000 g. The pellet then obtained is immediately frozen in fractions containing 0.5g of tissue.
The pellet is defrosted and homogenized with a Dounce in 80 volumes of Tris-HCl 50 mM, pH 7.7, containing 4 mM CaCl2, 10 μM of pargyline and 0.1% of ascorbic acid.
Affinity is produced at 25° C. by incubating for 30 min:
0.1 ml of buffer or 10 μM, as final concentration, of sumatriptan, in order to obtain the non-specific binding
0.1 ml of 3H-5HT (15 to 30 Ci:mM, New England Nuclear France).
The incubation is brought to an end by rapid filtration through GF/B filters and rinsing with 3 times 3 [illegible] ice-cold buffer, using a harvester manufactured by Brandel which makes it possible [illegible] to filter [illegible]samples. The filters are introduced into vials containing [illegible]ml of [illegible] [illegible] scintillant (Packard) and the radioactivity measured with a Tri-carb 4640 counter (Packard). The IC50 (concentration which inhibits the specific affinity by 50%) is determined graphically.

5-HT1A = target: T1, 5-HT1A (Rattus norvegicus, UniProt P19327); test: Affinity for 5-HT1A receptors (method of Peroutka); assay type: binding
T1 construct: from tissue; host or cells: rat frontal cortex (from the title of the cited method)
T1 sequence (P19327 1-422): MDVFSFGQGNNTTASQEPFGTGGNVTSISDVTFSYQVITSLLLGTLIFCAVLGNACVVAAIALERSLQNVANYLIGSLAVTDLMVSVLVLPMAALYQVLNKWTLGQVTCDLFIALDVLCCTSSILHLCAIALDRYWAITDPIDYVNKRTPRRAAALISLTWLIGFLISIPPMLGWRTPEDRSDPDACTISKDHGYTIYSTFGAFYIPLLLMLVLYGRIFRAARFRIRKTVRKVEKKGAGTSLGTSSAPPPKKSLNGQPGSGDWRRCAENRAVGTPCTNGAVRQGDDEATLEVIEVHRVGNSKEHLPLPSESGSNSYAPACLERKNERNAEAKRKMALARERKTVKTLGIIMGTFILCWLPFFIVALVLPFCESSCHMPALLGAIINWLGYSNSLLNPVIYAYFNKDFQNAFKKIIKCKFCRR
Experimental: The affinities of the various products which form part of this invention for 5HT1A and 5HT1B receptors were measured according to the techniques described in:
Peroutka S. J. Pharmacological differentiation and characterization of 5HT1A, 5HT1B and 5HT1C binding sites in rat frontal cortex. J. Neurochem., 45, 529-540, 1986.

human 5HT1Db receptor [1] = target: T2, human 5HT1Db receptor (Homo sapiens, UniProt P28222); test: Binding to cloned human 5HT1Db receptor; conditions: human cloned receptor; [3H] ligand 2 nM; read-out: Ki 5HT1Db
T2 sequence (P28222 whole entry): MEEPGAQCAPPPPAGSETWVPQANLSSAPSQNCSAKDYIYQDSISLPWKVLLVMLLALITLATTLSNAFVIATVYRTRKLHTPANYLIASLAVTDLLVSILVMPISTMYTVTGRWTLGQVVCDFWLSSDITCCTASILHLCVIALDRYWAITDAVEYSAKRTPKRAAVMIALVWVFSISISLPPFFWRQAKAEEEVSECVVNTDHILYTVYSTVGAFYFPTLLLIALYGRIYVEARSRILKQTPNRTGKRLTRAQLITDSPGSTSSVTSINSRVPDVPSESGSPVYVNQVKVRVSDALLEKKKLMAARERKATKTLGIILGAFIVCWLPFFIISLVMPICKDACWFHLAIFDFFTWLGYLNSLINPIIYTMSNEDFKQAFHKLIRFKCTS
Experimental: (§1) Human 5HT1Da and 5HT1Db receptors were cloned according to the sequences published by M. Hamblin and M. Metcalf, Mol. Pharmacol., 40, 143 (1991) and Weinshenk et al., Proc. Natl. Acad. Sci., 89, 3630 (1992).
(§2) The transient transfection and the stable transfection of the genes of these receptors was carried out in Cos-7 and CHO-K1 cell lines by using an electroporator.
(§3) The binding of the derivatives of the present invention with human 5HT1Da, 5HT1Db and 5HT1A receptors was studied according to the method described by P. Pauwels and C. Palmier (Neuropharmacology, 33, 67, 1994).
(§4) The incubation media for these binding measurements comprise 0.4 ml of cell membrane preparation, 0.05 ml of a tritiated ligand [[3H]-SCT (final concentration: 2 nM) for the 5HT1Da and 5HT1Db receptors and [3H]-80H-DPAT (final concentration: 1 nM) for the 5HT1A receptor] and 0.05 ml of the molecule to be tested (final concentrations from 0.1 nM to 1000 nM) or 10 μM (final concentration) of serotonin (5HT1Da and 5HT1Db) or 1 μM (final concentration) of spiroxatrin (5HT1A ).

human 5HT1Da receptor = human 5HT1Da receptor (Homo sapiens, UniProt P28221); test: Binding to cloned human 5HT1Da receptor; conditions: human cloned receptor; [3H] ligand 2 nM; read-out: Ki 5HT1Da
Chain of human 5HT1Da receptor (P28221 whole entry): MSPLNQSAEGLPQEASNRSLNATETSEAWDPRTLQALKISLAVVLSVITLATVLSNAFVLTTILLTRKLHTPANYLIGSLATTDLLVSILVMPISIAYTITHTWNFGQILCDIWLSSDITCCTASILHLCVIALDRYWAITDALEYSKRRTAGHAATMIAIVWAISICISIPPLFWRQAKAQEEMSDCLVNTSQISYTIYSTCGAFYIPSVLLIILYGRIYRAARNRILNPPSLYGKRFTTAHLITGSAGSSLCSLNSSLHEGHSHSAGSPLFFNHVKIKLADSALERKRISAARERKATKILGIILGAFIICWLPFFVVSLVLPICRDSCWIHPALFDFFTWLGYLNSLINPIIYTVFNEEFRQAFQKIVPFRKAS
Experimental: as §1, §2, §3, §4

human 5HT1Db receptor [2] = target: T2, human 5HT1Db receptor; test: cell-based; conditions: human 5HT1Db; CHO-K1 cells; read-out: EC50 (Inhibition of the 5HT1Db cyclase stimulated by forskolin)
Experimental: as §1, §2
The inhibition of the formation of cyclic AMP (stimulated by forskolin) mediated by the human 5HT1Db receptor was studied in CHO-K1 cells transfected by the receptor according to the technique described previously for the 5HT1B receptor (P. Pauwels and C. Palmier, Neuropharmacology, 33, 67, 1994).

5-HT1B receptor = target: T3, 5-HT1B receptor (Didelphis virginiana, UniProt P35404); test: Agonist activity: inhibition of forskolin-stimulated cAMP formation mediated by a 5-HT1B receptor in OK kidney epithelial cell line; assay type: cell-based
T3 construct: mediated by a 5-HT1B receptor, in an OK kidney epithelial cell line; endogenous in cells; host or cells: OK kidney epithelial cell line
T3 sequence (P35404 whole entry): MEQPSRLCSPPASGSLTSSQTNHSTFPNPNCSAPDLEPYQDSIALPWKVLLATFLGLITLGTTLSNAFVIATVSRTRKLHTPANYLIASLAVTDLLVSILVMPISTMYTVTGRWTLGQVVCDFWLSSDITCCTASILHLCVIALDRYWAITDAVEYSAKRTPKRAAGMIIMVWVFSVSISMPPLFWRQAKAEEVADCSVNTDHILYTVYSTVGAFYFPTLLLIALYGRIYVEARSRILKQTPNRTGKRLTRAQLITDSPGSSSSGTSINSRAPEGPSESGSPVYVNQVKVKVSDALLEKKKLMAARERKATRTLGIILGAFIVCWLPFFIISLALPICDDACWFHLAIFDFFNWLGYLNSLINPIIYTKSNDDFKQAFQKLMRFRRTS
Experimental: STUDY OF THE AGONIST ACTIVITY WITH RESPECT TO THE 5-HT1B RECEPTORS
The measurements were carried out with respect to the inhibition of the formation of cAMP stimulated by forskolin, mediated by a 5-HT1B receptor, in an OK kidney epithelial cell line as described elsewhere (P. J. Pauwels and C. Palmier, Neuropharmacology, awaiting publication).

[3] = rat frontal cortex (Peroutka method), read-out: IC50 5-HT1A mean

SMILES | Ratio 1A/1D (ratio of the IC50 values for the 5HT1A and 5HT1D receptors) (5-HT1D receptors) | IC50 (5-HT1D receptors) [nM] | IC50 (5-HT1A; [3]) [nM] | other results
CS(=O)(=O)N(c1ccc(N2CCN(C(=O)COc3ccc4[nH]cc(CCN)c4c3)CC2)cc1)S(C)(=O)=O [Example 6, N-[4-(4-{2-[3-(2-Aminoethyl)-1H-indol-5-yloxy]acetyl}piperazin-1-yl)phenyl](methanesulfonyl)methanesulfonamide hydrochloride] | 18 | 4.3 | 79 | 
NCCc1c[nH]c2ccc(OCC(=O)N3CCN(c4ccccc4[N+](=O)[O-])CC3)cc12 [Example 14, 2-[3-(2-Aminoethyl)-1H-indol-5-yloxy]-1-[4-(2-nitrophenyl)piperazin-1-yl)ethanone hydrochloride] | 10 | 1 |  | IC50 (5-HT1A): 9.5 nM
CS(=O)(=O)Nc1ccc(N2CCN(C(=O)COc3ccc4[nH]cc(CCN)c4c3)CC2)cc1 [Example 5, N-[4-(4-{2-[3-(2-Aminoethyl)-1H-indol-5-yloxy]acetyl}piperazin-1-yl)phenyl]methanesulfonamide hydrochloride] |  |  |  | Ki (human 5HT1Db receptor [1]): 3.2 nM; Ki (human 5HT1Da receptor): 0.7 nM; EC50 (human 5HT1Db receptor [2]): 6.5 nM
NCCc1c[nH]c2ccc(OCC(=O)N3CCN(c4ccc(NS(=O)(=O)c5cccs5)cc4)CC3)cc12 [Example 8, Thiophene-2-{N-[4-(4-{2-[3-(2-aminoethyl)-1H-indol-5-yloxy]acetyl}piperazin-1-yl)phenyl]sulfonamide hydrochloride] | 22 | 1.2 | 26 | 
NCCc1c[nH]c2ccc(O)cc12 [serotonin, reference compound] |  |  |  | blocking the formation of cAMP (in words) (5-HT1B receptor; OK kidney epithelial cell line, forskolin-stimulated): capable of effectively blocking the formation of cAMP
NCCc1c[nH]c2ccc(OCC(=O)N3CCN(c4ccc(N)cc4)CC3)cc12 [Example 2, 2-[3-(2-Aminoethyl)-1H-indol-5-yloxy]-1-[4-(4-aminophenyl)piperazin-1-yl]ethanone hydrochloride] |  |  |  | EC50 (5-HT1B receptor): 0.3 to 1.2 nM
CC(=O)Nc1ccc(N2CCN(C(=O)COc3ccc4[nH]cc(CCN)c4c3)CC2)cc1 [Example 3, N-[4-(4-{2-[3-(2-Aminoethyl)-1H-indol-5-yloxy]acetyl}piperazin-1-yl)phenyl]acetamide hydrochloride] |  |  |  | EC50 (5-HT1B receptor): 0.3 to 1.2 nM
NCCc1c[nH]c2ccc(OCC(=O)N3CCN(c4ccc([N+](=O)[O-])cc4)CC3)cc12 [Example 1, 2-[3-(2-Aminoethyl)-1H-indol-5-yloxy]-1-[4-(4-nitrophenyl)piperazin-1-yl]ethanone hydrochloride] |  |  |  | EC50 (5-HT1B receptor): 0.3 to 1.2 nM; Ki (human 5HT1Db receptor [1]): 1 nM; Ki (human 5HT1Da receptor): 0.5 nM; EC50 (human 5HT1Db receptor [2]): 1.2 nM
CS(=O)(=O)Nc1ccc(N2CCN(C(=O)CCCCCOc3ccc4[nH]cc(CCN)c4c3)CC2)cc1 [Example 59, N-[4-(4-{6-[3-(2-Aminoethyl)-1H-indol-5-yloxy]hexanoyl}piperazin-1-yl)phenyl]methane sulfonamide hydrochloride] |  |  |  | Ki (human 5HT1Db receptor [1]): 1.3 nM; Ki (human 5HT1Da receptor): 1.3 nM; EC50 (human 5HT1Db receptor [2]): 0.52 nM

Further lines, with some results ahead:

Ratio 1A/1D (ratio of the IC50 values for the 5HT1A and 5HT1D receptors) (5-HT1D receptors) | IC50 (5-HT1D receptors) [nM] | IC50 (5-HT1A; [3]) [nM] | SMILES | other results
28 | 1.6 | 44 | CCS(=O)(=O)Nc1ccc(N2CCN(C(=O)COc3ccc4[nH]cc(CCN)c4c3)CC2)cc1 [Example 7, N-[4-(4-{2-[3-(2-Aminoethyl)-1H-indol-5-yloxy]acetyl}piperazin-1-yl)phenyl]ethanesulfonamide hydrochloride] | 
75 | 1 | 75 | NCCc1c[nH]c2ccc(OCC(=O)N3CCN(c4ccc(NC(=O)c5ccccc5)cc4)CC3)cc12 [Example 4, N-[4-(4-{2-[3-(2-Aminoethyl)-1H-indol-5-yloxy]acetyl}piperazin-1-yl)phenyl]benzamide hydrochloride] | 
20 | 1 | 20 | Cc1noc(C)c1S(=O)(=O)Nc1ccc(N2CCN(C(=O)COc3ccc4[nH]cc(CCN)c4c3)CC2)cc1 [Example 10, 3,5-Dimethylisoxazole-4-{N-[4-(4-{2-[3-(2-aminoethyl)-1H-indol-5-yloxy]acetyl}-piperazin-1-yl)phenyl]sulfonamide hydrochloride] | 
 |  | 38 | NCCc1c[nH]c2ccc(OCC(=O)N3CCN(c4ccc(N(S(=O)(=O)c5cccs5)S(=O)(=O)c5cccs5)cc4)CC3)cc12 [Example 9, N-[4-(4-{2-[3-(2-Aminoethyl)-1H-indol-5-yl-oxy]acetyl}piperazin-1-yl)phenyl](thiophene-2-sulfonyl)-thiophene-2-sulfonamide hydrochloride] | 
44 | 2.4 | 105 | CCOC(=O)Nc1ccc(N2CCN(C(=O)COc3ccc4[nH]cc(CCN)c4c3)CC2)cc1 [Example 11, 2-[3-(2-Aminoethyl)-1H-indol-5-yloxy]-1-[4-(4-N-{ethoxycarbonyl}aminophenyl)piperazin-1-yl]-ethanone hydrochloride] | 
